Reference: patent publication US20210285024A1, “In vitro Screening Assay of TCPase Modulators” (CENTRE NATIONAL DE LA RECHERCHE SCIENTIFIQUE (CNRS), priority 2018, published 2021)

How the values were obtained:
[1] = test system: HEK293T cells deficient for VASH1 and VASH2; conditions: Nieuwenhuis et al., 2017; cited from earlier work
SVBP-VASH2 complex = SVBP-VASH2 complex (Homo sapiens, UniProt Q86V25); test: Detyrosination assay using tubulin purified from Sf9 cells and recombinant SVBP-VASH2 complex; conditions: 0.1 μM and 10 μM; 15 min at 37° C.; microtubules from Sf9 tubulin; western blot
SVBP-VASH2 complex, sequence (Q86V25 whole entry): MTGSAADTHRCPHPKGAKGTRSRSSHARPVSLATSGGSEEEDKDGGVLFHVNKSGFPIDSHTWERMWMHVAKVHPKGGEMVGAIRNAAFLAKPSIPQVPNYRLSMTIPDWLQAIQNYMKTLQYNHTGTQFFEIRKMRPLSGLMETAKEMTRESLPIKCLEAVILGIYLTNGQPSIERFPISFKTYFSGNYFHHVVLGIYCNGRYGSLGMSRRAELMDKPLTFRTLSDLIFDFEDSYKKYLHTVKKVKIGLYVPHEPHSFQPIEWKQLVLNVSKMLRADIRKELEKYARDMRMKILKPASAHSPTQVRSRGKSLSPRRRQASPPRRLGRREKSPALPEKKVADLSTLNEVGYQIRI
SVBP-VASH2 complex, sequence (Q8N300 whole entry partner): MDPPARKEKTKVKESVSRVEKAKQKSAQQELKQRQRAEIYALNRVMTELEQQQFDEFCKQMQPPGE
Method: FIG. 17: Detyrosination assay performed using tubulin purified from Sf9 cells and recombinant SVBP-VASH2 complex in absence or presence of putative inhibitors of detyrosinase. […] FIG. 17b: Western blot. FIG. 17c: Representation of relative optical density (detyrosination/tubulin).
A negative control sample consisting of the tubulin in the reaction buffer in absence of the detyrosinase (SVBP-VASH2 complex) was also analysed by western blotting (FIG. 17b).

SMILES	alpha-tubulin detyrosination [1]	reduction of the detyrosinating activity of SVBP-VASH2 complex (SVBP-VASH2 complex)
CC(=O)O[C@H]1C(=O)[C@@]2(C)[C@H]([C@H](OC(=O)c3ccccc3)[C@]3(O)C[C@H](OC(=O)[C@H](O)[C@@H](NC(=O)c4ccccc4)c4ccccc4)C(C)=C1C3(C)C)[C@]1(OC(C)=O)CO[C@@H]1C[C@@H]2O [Taxol, paclitaxel]	robust increase	
C=C1C(=O)O[C@@H]2C[C@@]3(C)CCC[C@H](C)C3=C[C@H]12 [alantolactone, Alantolactone]		did not result in any significant reduction
C=C1C(=O)O[C@@H]2/C=C(\C)CC/C=C(\C)CC[C@@H]12 [costunolide, Costunolide]		did not result in any significant reduction
